# Values quoted from earlier work as cited in US12685710B2, “Administration of ciclopirox with no adversal gastrointestinal toxicity” (ATLAS MOLECULAR PHARMA, S.L., priority 2021, dated 2026).
# Test system: patients with hematological malignancies
smiles,measurement,setting,value
"Cc1cc(C2CCCCC2)n(O)c(=O)c1 [ciclopirox olamine, 6-cyclohexyl-1-hydroxy-4-methyl-2 (1H)-pyridone with 2-aminoethanol in a 1:1 ratio]","grade 3 GI dose limiting toxicity (DLTs) and bowel inflammation, patients affected in cohort","oral, OraSweet formulation, 80 mg/m^2 (2.2 mg/kg) 4 times daily",3/4
same,tolerability of once-daily dosing,"oral, once daily up to and including 40 mg/m^2 (1.1 mg/kg)",well tolerated
same,gastrointestinal toxicity in Phase I study,patients treated with ciclopirox olamine,showed gastrointestinal toxicity
